Test results taken from patent US20090306207A1, “Treatment of Drug-Resistant Proliferative Disorders” (priority 2005, published 2009).
Each block holds one compound with its values, some of them ahead of it.

Columns and labels:
[1] = tested on: 32Dcl3 cells expressing BCR-ABL H396P; test: Cell viability (trypan blue exclusion), BCR-ABL H396P cells; assay type: cell-based, murine; conditions: Mus musculus, 72 hours
[2] = tested on: 32Dcl3 cells expressing BCR-ABL E255V; test: Cell viability (trypan blue exclusion), BCR-ABL E255V cells
Experimental: (§2) Mutations corresponding to those published in the literature (Shah et al., Oncogene, 22, 7389-7395 (2003)) were introduced into the bcr-abl cDNA, which was then introduced into actively proliferating 32Dcl3 cells (Rovera et al., Oncogene 1, 29-35 (1987)) according to the following procedure.
(§3) The expression of the BCR-ABL proteins was determined by Western blot and kinase assays.
(§4) Transfectants were selected in the absence of IL-3.
(§5) The total number of viable cells was determined by trypan blue exclusion at 72 hours post-treatment. The percent viable cells compared to vehicle-treated controls was determined.
(§6) The wild type comprises 32Dcl3.BCR-ABL cells that ectopically expressed the wild-type p210^BCR-ABL oncoprotein. The total number of viable cells was determined by trypan blue exclusion at 72 hours post-treatment. The percent viable cells compared to vehicle-treated controls was determined.

[3] = tested on: 32Dcl3 cells expressing BCR-ABL Q252H; test: Cell viability (trypan blue exclusion), BCR-ABL Q252H cells; assay type: cell-based, murine; conditions: 72 hours
[4] = tested on: 32Dcl3 cells expressing BCR-ABL T315I; test: Cell viability (trypan blue exclusion), BCR-ABL T315I cells
Experimental: as §2, §3, §4, §5, §6

[5] = tested on: 32Dcl3 cells expressing BCR-ABL Y253H; test: Cell viability (trypan blue exclusion), BCR-ABL Y253H cells; assay type: cell-based, murine; conditions: Mus musculus, 72 hours
[6] = tested on: 32Dcl3 cells expressing BCR-ABL F311L; test: Cell viability (trypan blue exclusion), BCR-ABL F311L cells
Experimental: as §2, §3, §4, §5, §6

[7] = tested on: normal bone marrow cells; test: Hematopoietic colony formation assay; assay type: in vivo, CD-1 mice; conditions: 100 mg/kg intravenous; bone marrow cells extracted after 24 hrs
Experimental: To examine the effects of Compound 1 on normal hematopoietic cell population in vivo, a dose of 100 mg/kg of this compound in normal saline (or saline alone as a control) was injected intravenously (tail vein injection) into CD-1 mice (10 animals per group). The effect on the in vitro hematopoietic colony formation of normal bone marrow cells derived from these mice was determined 24 hrs following administration. Bone marrow cells were extracted from the mice after 24 hrs and 2×10^5 cells were plated on methylcellulose containing appropriate cytokines for lineage specific colony formation. Colonies were counted after 5 to 14 days of incubation.

[8] = tested on: 32Dcl3 cells expressing BCR-ABL L387M; test: Cell viability (trypan blue exclusion), BCR-ABL L387M cells
Experimental: as §3, §4, §5, §6

[9] = tested on: 32Dcl3 cells expressing BCR-ABL M244V; test: Cell viability (trypan blue exclusion), BCR-ABL M244V cells; assay type: cell-based, murine; conditions: Mus musculus, 72 hours
[10] = tested on: 32Dcl3 cells expressing BCR-ABL H396R; test: Cell viability (trypan blue exclusion), BCR-ABL H396R cells; assay type: cell-based, murine; conditions: Mus musculus, 72 hours
[11] = tested on: 32Dcl3.BCR-ABL cells expressing wild-type p210 BCR-ABL; test: Cell viability (trypan blue exclusion), cells expressing wild-type BCR-ABL; assay type: cell-based, murine; conditions: for GI50: Mus musculus, 72 hours
Experimental: (§1) Cell viability was then determined by trypan blue exclusion.
Cells expressing the wild-type p210^BCA-ABL oncoprotein (32Dcl3.BCR-ABL) or the BCR-ABL mutations G250E, T315I or M351T, were incubated with varying concentrations of Compound 4 ((E)-1-(2-(4-bromobenzylsulfonyl)vinyl)-2,4-difluorobenzene).

[12] = tested on: 32Dcl3 cells expressing BCR-ABL Y253F; test: Cell viability (trypan blue exclusion), BCR-ABL Y253F cells
Experimental: as §2, §3, §4, §5, §6

[13] = tested on: 32Dcl3 cells expressing BCR-ABL F359V; test: Cell viability (trypan blue exclusion), BCR-ABL F359V cells; assay type: cell-based, murine; conditions: Mus musculus, 72 hours
[14] = tested on: 32Dcl3 cells expressing BCR-ABL E255K; test: Cell viability (trypan blue exclusion), BCR-ABL E255K cells
Experimental: as §3, §4, §5, §6

[15] = tested on: 32D/BCR-ABL^T315I cells; test: In vivo growth of cells expressing imatinib-resistant BCR-ABL T315I (blood smears); design: species or system athymic nude mice; conditions: 100 mg/kg daily intraperitoneal; days 7 and 14; compared to vehicle and imatinib treated groups
Experimental: Blood smears on the treated mice were performed 7 and 14 days after the start of treatments. One drop of blood from each mouse was smeared onto glass slides, air dried and stained with modified Wright stain (Sigma). The T315I cells in the blood were easily visible due to their blue staining and size difference. The number of T315I cells per 10 fields was determined by counting 10 fields of view containing an equal density of red blood cells using a 40× objective on an upright Olympus microscope.

[16] = tested on: 32Dcl3 cells expressing BCR-ABL E355G; test: Cell viability (trypan blue exclusion), BCR-ABL E355G cells; assay type: cell-based, murine; conditions: Mus musculus, 72 hours
[17] = tested on: CML K562 cells; test: Cell viability (trypan blue exclusion), K562 cells; assay type: cell-based
Experimental: K562 cells were maintained in RPMI (Roswell Park Memorial Institute) medium supplemented with 10% FBS and 1 U/ml penicillin-streptomycin.
as §1

[18] = tested on: 32Dcl3 cells expressing BCR-ABL F317L; test: Cell viability (trypan blue exclusion), BCR-ABL F317L cells; assay type: cell-based, murine; conditions: Mus musculus, 72 hours
[19] = tested on: 32Dcl3 cells transfected to express wild-type or imatinib-resistant forms of BCR-ABL; test: Growth inhibition of the panel of cells expressing wild-type or imatinib-resistant forms of BCR-ABL; assay type: cell-based, murine
Experimental: as §3, §5, §6

[20] = tested on: 32Dcl3 cells expressing BCR-ABL G250E; test: Cell viability (trypan blue exclusion), BCR-ABL G250E cells
Experimental: as §2, §3, §4, §5, §6

[21] = tested on: 32Dcl3 cells expressing BCR-ABL M351T; test: Cell viability (trypan blue exclusion), BCR-ABL M351T cells; assay type: cell-based, murine; conditions: Mus musculus, 72 hours
[22] = Toxicity in treated mice (body weight, signs); conditions: 100 mg/kg daily intraperitoneal for 10 days
Experimental: Female athymic nude mice (ncr/ncr) were injected intravenously with 1×10^6 32Dcl3 cells expressing the mutant BCR-ABL^T315I via the tail vein.
Body weights of the test animals were taken every two days.

SMILES: COc1cc(OC)c(/C=C/S(=O)(=O)Cc2ccc(OC)c(NC(C)C(=O)O)c2)c(OC)c1 (centres unmarked) [Compound 1, (E)-2-(5-((2,4,6-trimethoxystyrylsulfonyl)methyl)-2-methoxyphenylamino) propanoic acid]
GI50 [1]: 7.9 nM
LD50 ([2]; E255V, 72 hours): 7.8 nM
LD50 [3]: 7.0 nM
LD50 ([4]; T315I, 72 hours): 7.5 nM
GI50 [5]: 7.8 nM
LD50 ([6]; F311L, 72 hours): 6.8 nM
colony formation of the erythroid, myeloid or lymphoid lineages [7]: No reduction in colony formation
LD50 ([8]; L387M, 72 hours): 7.1 nM
GI50 [9]: 7.8 nM
GI50 [10]: 6.8 nM
LD50 (loss of viability) ([11]; 32Dcl3.BCR-ABL cells, 72 hours incubation): 10 to 15 nM
GI50 ([11]; None (wt), trypan blue exclusion): 10 nM
LD50 ([12]; 72 hours): 6.8 nM
GI50 [13]: 7.1 nM
LD50 ([14]; E255K, 72 hours): 8.4 nM
number of T315I cells in the blood [15]: significantly reduced
GI50 [16]: 7.8 nM
concentration inhibiting proliferation, fold less than that shown for imatinib ([17]; BCR-ABL+ cell lines (K562 and 32Dcl3.BCR-ABL)): 10 fold
LD50 (loss of viability) ([17]; K562 cells, 72 hours incubation): 10 to 15 nM
GI50 [18]: 7.8 nM
sensitivity to growth inhibitory activity ([19]; all transfected cell lines, including T315I mutant, various concentrations, 72 hours): extremely sensitive
LD50 ([20]; G250E, 72 hours): 5.9 nM
GI50 [21]: 7.8 nM

SMILES: COc1cc(OC)c(/C=C/S(=O)(=O)Cc2ccc(OC)c(NCC(=O)O)c2)c(OC)c1 [Compound 2, (E)-2-(5-((2,4,6-trimethoxystyrylsulfonyl)methyl)-2-methoxyphenylamino) acetic acid]
sensitivity to growth-inhibitory activity ([19]; cell lines listed in Table 2, 250 nM): sensitive

GI50 [1]: 50 nM
GI50 [10]: 60 nM
SMILES: COc1cc(OC)c(/C=C/S(=O)(=O)Cc2ccc(OC)c(NC(C)(C)C(=O)O)c2)c(OC)c1 [Compound 3, (E)-2-(5-((2,4,6-trimethoxystyryl-sulfonyl)methyl)-2-methoxyphenylamino)-2-methylpropanoic acid]
GI50 ([2]; Mus musculus, 72 h): 50 nM
GI50 ([3]; Mus musculus): 40 nM
GI50 ([4]; Mus musculus, 72 h): 60 nM
GI50 [5]: 30 nM
GI50 ([6]; Mus musculus, 72 h): 70 nM
GI50 ([8]; Mus musculus, 72 h): 50 nM
GI50 ([11]; Wild-type): 40 nM
GI50 ([12]; 72 hours): 70 nM
GI50 ([12]; Mus musculus, 72 h): 40 nM
GI50 [13]: 70 nM
GI50 ([14]; Mus musculus, 72 h): 50 nM
GI50 [16]: 50 nM
GI50 [18]: 60 nM
sensitivity to growth-inhibitory activity ([19]; cell lines listed in Table 3, various concentrations, 72 hours): sensitive
GI50 ([20]; Mus musculus, 72 h): 25 nM
GI50 [21]: 60 nM

SMILES: O=S(=O)(/C=C/c1ccc(F)cc1F)Cc1ccc(Br)cc1 [Compound 4, (E)-1-(2-(4-bromobenzylsulfonyl)vinyl)-2,4-difluorobenzene]
sensitivity to growth-inhibitory activity ([19]; wild-type, G250E, T315I or M351T, varying concentrations, 72 hours): sensitive

SMILES: Cc1ccc(NC(=O)c2ccc(CN3CCN(C)CC3)cc2)cc1Nc1nccc(-c2cccnc2)n1 [imatinib, Imatinib]
loss of bodyweight [22]: > 20%
